Measured values published in publication PMC2396520, “Antibody Complementarity-Determining Regions (CDRs) Can Display Differential Antimicrobial, Antiviral and Antitumor Activities” (PLoS ONE, 2008).
Where a SMILES comes first, the peptide text is derived from it.

Experiments:
[1] = system: B16F10-Nex2 murine melanoma cells; type: cell-based; conditions: for EC50: 12 h
Procedure: Each peptide was tested in triplicate. After 12 h, the cytotoxic activities of the peptides were determined by measuring cell viability by Trypan Blue exclusion.

Candida albicans UP10 = type: cell-based; conditions: for Anti-Candida activity (%) at 100 µg/mL: C7/pc42 H2 alanine-substituted derivatives, 37°C, 6 h, CFU assay, triplicate; for EC50: UP10, 6 h; for EC50asd/EC50H2: anti-Candida EC50 of the derivative relative to C7/pc42 H2
Procedure: The alanine substituted derivatives (asd), defined according to the position held by the alanine-substituted aminoacid, were tested in the same biological assays to critically establish the functional relevance of each residue [5]. In vitro microbicidal activity of CDR peptides and selected asd against C. albicans UP 10 (clinical isolate from the fungi collection of the University of Parma) and C. albicans NCPF 3153 (National Collection of Pathogenic Fungi, Bristol, UK) were used for the in vitro experiments.
The microbicidal activity of synthetic CDRs against C. albicans strains was preliminarily evaluated by testing 100 µg/mL of each synthetic peptide by colony forming unit (CFU) assays as previously described [5]. Briefly, 10 µL of a distilled water suspension containing ∼5×10^4/mL germinating yeast cells were added to 90 µL of distilled water containing the synthetic peptide to be tested. Yeast suspensions were incubated at 37°C for 6 h. After incubation, the cell suspensions were plated on Sabouraud dextrose agar, incubated at 30°C and observed for CFU determination after 48–72 hours. Each assay was carried out in triplicate. […] EC50 was calculated by nonlinear regression analysis using Graph Pad Prism 4.01 software, San Diego, CA, USA.

EC50 (Candida albicans UP10) [µM] | EC50asd/EC50H2 (Candida albicans UP10) | EC50 [1] [µM] | Compound | apoptotic activity in melanoma cells ([1]; data not shown) | Anti-Candida activity (%) at 100 µg/mL (Candida albicans UP10) [%]
3.91 | 0.93 | 128 | CC[C@H](C)[C@H](NC(=O)[C@@H](N)Cc1ccc(O)cc1)C(=O)N[C@@H](CO)C(=O)N[C@@H](CS)C(=O)N[C@@H](Cc1ccc(O)cc1)C(=O)N[C@@H](CC(N)=O)C(=O)NCC(=O)N[C@@H](C)C(=O)N[C@H](C(=O)N[C@@H](CO)C(=O)N[C@@H](Cc1ccc(O)cc1)C(=O)N[C@@H](CC(N)=O)C(=O)N[C@@H](C)C(=O)N[C@@H](CCCCN)C(=O)N[C@@H](Cc1ccccc1)C(=O)N[C@@H](CCCCN)C(=O)O)[C@@H](C)O [Q13A] (H-YISCYNGATSYNAKFK-OH; N-terminus and C-terminus assumed) | – | 100.00
6.48 | 1.55 | 125 | CC[C@H](C)[C@H](NC(=O)[C@@H](N)Cc1ccc(O)cc1)C(=O)N[C@@H](CO)C(=O)N[C@@H](CS)C(=O)N[C@@H](Cc1ccc(O)cc1)C(=O)N[C@@H](CC(N)=O)C(=O)NCC(=O)N[C@@H](C)C(=O)N[C@H](C(=O)N[C@@H](CO)C(=O)N[C@@H](Cc1ccc(O)cc1)C(=O)N[C@@H](C)C(=O)N[C@@H](CCC(N)=O)C(=O)N[C@@H](CCCCN)C(=O)N[C@@H](Cc1ccccc1)C(=O)N[C@@H](CCCCN)C(=O)O)[C@@H](C)O [N12A] (H-YISCYNGATSYAQKFK-OH; N-terminus and C-terminus assumed) | – | 100.00
18.5 | 4.41 | 384 | CC[C@H](C)[C@H](NC(=O)[C@@H](N)Cc1ccc(O)cc1)C(=O)N[C@@H](CO)C(=O)N[C@@H](CS)C(=O)N[C@@H](Cc1ccc(O)cc1)C(=O)N[C@@H](CC(N)=O)C(=O)NCC(=O)N[C@@H](C)C(=O)N[C@H](C(=O)N[C@@H](CO)C(=O)N[C@@H](Cc1ccc(O)cc1)C(=O)N[C@@H](CC(N)=O)C(=O)N[C@@H](CCC(N)=O)C(=O)N[C@@H](C)C(=O)N[C@@H](Cc1ccccc1)C(=O)N[C@@H](CCCCN)C(=O)O)[C@@H](C)O [K14A] (H-YISCYNGATSYNQAFK-OH; N-terminus and C-terminus assumed) | – | 91.72
3.12 | 0.74 | 64.9 | CC[C@H](C)[C@H](NC(=O)[C@@H](N)Cc1ccc(O)cc1)C(=O)N[C@@H](C)C(=O)N[C@@H](CS)C(=O)N[C@@H](Cc1ccc(O)cc1)C(=O)N[C@@H](CC(N)=O)C(=O)NCC(=O)N[C@@H](C)C(=O)N[C@H](C(=O)N[C@@H](CO)C(=O)N[C@@H](Cc1ccc(O)cc1)C(=O)N[C@@H](CC(N)=O)C(=O)N[C@@H](CCC(N)=O)C(=O)N[C@@H](CCCCN)C(=O)N[C@@H](Cc1ccccc1)C(=O)N[C@@H](CCCCN)C(=O)O)[C@@H](C)O [S3A] (H-YIACYNGATSYNQKFK-OH; N-terminus and C-terminus assumed) | – | 100.00
3.8 | 0.91 | 60.2 | CC[C@H](C)[C@H](NC(=O)[C@@H](N)Cc1ccc(O)cc1)C(=O)N[C@@H](CO)C(=O)N[C@@H](CS)C(=O)N[C@@H](Cc1ccc(O)cc1)C(=O)N[C@@H](CC(N)=O)C(=O)NCC(=O)N[C@@H](C)C(=O)N[C@@H](C)C(=O)N[C@@H](CO)C(=O)N[C@@H](Cc1ccc(O)cc1)C(=O)N[C@@H](CC(N)=O)C(=O)N[C@@H](CCC(N)=O)C(=O)N[C@@H](CCCCN)C(=O)N[C@@H](Cc1ccccc1)C(=O)N[C@@H](CCCCN)C(=O)O [T9A] (H-YISCYNGAASYNQKFK-OH; N-terminus and C-terminus assumed) | – | 100.00
1.54 | 0.37 | 76.9 | CC[C@H](C)[C@H](NC(=O)[C@@H](N)Cc1ccc(O)cc1)C(=O)N[C@@H](CO)C(=O)N[C@@H](CS)C(=O)N[C@@H](Cc1ccc(O)cc1)C(=O)N[C@@H](C)C(=O)NCC(=O)N[C@@H](C)C(=O)N[C@H](C(=O)N[C@@H](CO)C(=O)N[C@@H](Cc1ccc(O)cc1)C(=O)N[C@@H](CC(N)=O)C(=O)N[C@@H](CCC(N)=O)C(=O)N[C@@H](CCCCN)C(=O)N[C@@H](Cc1ccccc1)C(=O)N[C@@H](CCCCN)C(=O)O)[C@@H](C)O [N6A] (H-YISCYAGATSYNQKFK-OH; N-terminus and C-terminus assumed) | – | 100.00

Continued, compound first:

Compound | EC50 (Candida albicans UP10) [µM] | EC50asd/EC50H2 (Candida albicans UP10) | EC50 [1] [µM] | apoptotic activity in melanoma cells ([1]; data not shown) | Anti-Candida activity (%) at 100 µg/mL (Candida albicans UP10) [%]
SYNQKFK [C-terminal peptide of C7/pc42 H2] | – | – | – | not apoptotic by itself | –
C[C@H](NC(=O)CNC(=O)[C@H](CC(N)=O)NC(=O)[C@H](Cc1ccc(O)cc1)NC(=O)[C@H](CS)NC(=O)[C@H](CO)NC(=O)[C@H](C)NC(=O)[C@@H](N)Cc1ccc(O)cc1)C(=O)N[C@H](C(=O)N[C@@H](CO)C(=O)N[C@@H](Cc1ccc(O)cc1)C(=O)N[C@@H](CC(N)=O)C(=O)N[C@@H](CCC(N)=O)C(=O)N[C@@H](CCCCN)C(=O)N[C@@H](Cc1ccccc1)C(=O)N[C@@H](CCCCN)C(=O)O)[C@@H](C)O [I2A] (H-YASCYNGATSYNQKFK-OH; N-terminus and C-terminus assumed) | 6.25 | 1.49 | 73.5 | – | 99.77
CC(C)C[C@H](NC(=O)[C@H](CC(N)=O)NC(=O)[C@H](CO)NC(=O)[C@@H](NC(=O)[C@@H](N)CC(C)C)C(C)C)C(=O)N[C@@H](CCC(=O)O)C(=O)N[C@@H](CO)C(=O)O [pc42 L2] (H-LVSNLES-OH) | 12 | – | – | – | –
CC(C)C[C@H](NC(=O)[C@H](CC(C)C)NC(=O)[C@H](CO)NC(=O)[C@H](CCC(N)=O)NC(=O)[C@H](CO)NC(=O)[C@H](CO)NC(=O)[C@@H](N)CCCCN)C(=O)N[C@@H](CC(N)=O)C(=O)N[C@@H](CO)C(=O)NCC(=O)N[C@@H](CC(N)=O)C(=O)N[C@@H](CCC(N)=O)C(=O)N[C@@H](CCCCN)C(=O)N[C@@H](CC(N)=O)C(=O)N[C@@H](Cc1ccc(O)cc1)C(=O)N[C@@H](CC(C)C)C(=O)N[C@H](C(=O)O)[C@@H](C)O [C7 L1] (H-KSSQSLLNSGNQKNYLT-OH) | 15.2 | – | – | – | –
CC[C@H](C)[C@H](NC(=O)[C@@H](N)Cc1ccc(O)cc1)C(=O)N[C@@H](CO)C(=O)N[C@@H](CS)C(=O)N[C@@H](C)C(=O)N[C@@H](CC(N)=O)C(=O)NCC(=O)N[C@@H](C)C(=O)N[C@H](C(=O)N[C@@H](CO)C(=O)N[C@@H](Cc1ccc(O)cc1)C(=O)N[C@@H](CC(N)=O)C(=O)N[C@@H](CCC(N)=O)C(=O)N[C@@H](CCCCN)C(=O)N[C@@H](Cc1ccccc1)C(=O)N[C@@H](CCCCN)C(=O)O)[C@@H](C)O [Y5A] (H-YISCANGATSYNQKFK-OH; N-terminus and C-terminus assumed) | 28.5 | 6.81 | 73.5 | – | 98.10
N=C(N)NCCC[C@H](NC(=O)[C@H](CCC(N)=O)NC(=O)[C@@H](N)CCC(N)=O)C(=O)N[C@@H](CO)C(=O)N[C@@H](CC(N)=O)C(=O)N[C@@H](Cc1c[nH]c2ccccc12)C(=O)N1CCC[C@H]1C(=O)N[C@@H](CCCNC(=N)N)C(=O)N[C@@H](CO)C(=O)O [HuA L3] (H-QQRSNWPRS-OH) | 5.11 | – | – | – | –
CC[C@H](C)[C@H](NC(=O)[C@@H](N)Cc1ccc(O)cc1)C(=O)N[C@@H](CO)C(=O)N[C@@H](CS)C(=O)N[C@@H](Cc1ccc(O)cc1)C(=O)N[C@@H](CC(N)=O)C(=O)NCC(=O)N[C@@H](C)C(=O)N[C@H](C(=O)N[C@@H](CO)C(=O)N[C@@H](Cc1ccc(O)cc1)C(=O)N[C@@H](CC(N)=O)C(=O)N[C@@H](CCC(N)=O)C(=O)N[C@@H](CCCCN)C(=O)N[C@@H](C)C(=O)N[C@@H](CCCCN)C(=O)O)[C@@H](C)O [F15A] (H-YISCYNGATSYNQKAK-OH; N-terminus and C-terminus assumed) | 0.904 | 0.22 | 1000 | – | 100.00
CC[C@H](C)[C@H](NC(=O)[C@@H](N)Cc1ccc(O)cc1)C(=O)N[C@@H](CO)C(=O)N[C@@H](CS)C(=O)N[C@@H](Cc1ccc(O)cc1)C(=O)N[C@@H](CC(N)=O)C(=O)N[C@@H](C)C(=O)N[C@@H](C)C(=O)N[C@H](C(=O)N[C@@H](CO)C(=O)N[C@@H](Cc1ccc(O)cc1)C(=O)N[C@@H](CC(N)=O)C(=O)N[C@@H](CCC(N)=O)C(=O)N[C@@H](CCCCN)C(=O)N[C@@H](Cc1ccccc1)C(=O)N[C@@H](CCCCN)C(=O)O)[C@@H](C)O [G7A] (H-YISCYNAATSYNQKFK-OH; N-terminus and C-terminus assumed) | 7.31 | 1.74 | 63.2 | – | 100.00
N=C(N)NCCC[C@H](NC(=O)[C@H](CO)NC(=O)[C@H](CCCNC(=N)N)NC(=O)[C@@H]1CCCN1C(=O)[C@H](Cc1ccc(O)cc1)NC(=O)[C@H](CO)NC(=O)[C@H](Cc1ccc(O)cc1)NC(=O)[C@H](CC(=O)O)NC(=O)[C@@H](N)CC(N)=O)C(=O)O [C7 L3] (H-NDYSYPRSR-OH) | 20.2 | – | – | – | –
CSCC[C@H](NC(=O)[C@H](Cc1ccc(O)cc1)NC(=O)[C@H](CO)NC(=O)[C@H](Cc1ccc(O)cc1)NC(=O)CNC(=O)[C@H](CO)NC(=O)[C@@H](NC(=O)[C@H](CO)NC(=O)[C@@H](NC(=O)[C@H](CO)NC(=O)[C@H](CCCCN)NC(=O)[C@H](CO)NC(=O)[C@H](C)NC(=O)[C@H](CCCNC(=N)N)NC(=O)[C@@H](N)Cc1ccc(O)cc1)C(C)C)[C@@H](C)O)C(=O)N[C@@H](Cc1c[nH]cn1)C(=O)O [pc42 L1] (H-YRASKSVSTSGYSYMH-OH) | 0.78 | – | – | – | –
CC[C@H](C)[C@H](NC(=O)[C@H](C)N)C(=O)N[C@@H](CO)C(=O)N[C@@H](CS)C(=O)N[C@@H](Cc1ccc(O)cc1)C(=O)N[C@@H](CC(N)=O)C(=O)NCC(=O)N[C@@H](C)C(=O)N[C@H](C(=O)N[C@@H](CO)C(=O)N[C@@H](Cc1ccc(O)cc1)C(=O)N[C@@H](CC(N)=O)C(=O)N[C@@H](CCC(N)=O)C(=O)N[C@@H](CCCCN)C(=O)N[C@@H](Cc1ccccc1)C(=O)N[C@@H](CCCCN)C(=O)O)[C@@H](C)O [Y1A] (H-AISCYNGATSYNQKFK-OH; N-terminus and C-terminus assumed) | 6.21 | 1.48 | 71.4 | – | 99.37
